Source: publication PMC10156769, “The novel anti-cancer fluoropyrimidine NUC-3373 is a potent inhibitor of thymidylate synthase and an effective DNA-damaging agent” (Cancer Chemotherapy and Pharmacology, 2023)

Columns and labels:
[1] = target: T1, dUTPase (Deoxyuridine triphosphate nucleotidohydrolase) (Homo sapiens, UniProt P33316); experiment: EnzChek pyrophosphate coupled assay, recombinant human dUTPase, product inhibition; format: biochemical
T1 construct: gene DUT
T1 sequence (P33316 70-252): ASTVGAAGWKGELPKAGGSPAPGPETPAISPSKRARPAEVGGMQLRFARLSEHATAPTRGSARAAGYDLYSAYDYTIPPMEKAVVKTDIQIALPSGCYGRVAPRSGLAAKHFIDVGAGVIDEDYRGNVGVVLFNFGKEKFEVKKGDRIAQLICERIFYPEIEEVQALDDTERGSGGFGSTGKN

[2] = target: T2, thymidylate synthase (TS) (Homo sapiens, UniProt P04818); experiment: western blot shift of TS ([…] to […] kDa, ternary complex) in HCT116 and SW480 cells treated with NUC-3373 or 5-FU; format: cell-based
T2 construct: gene TYMS
T2 sequence (P04818 2-313): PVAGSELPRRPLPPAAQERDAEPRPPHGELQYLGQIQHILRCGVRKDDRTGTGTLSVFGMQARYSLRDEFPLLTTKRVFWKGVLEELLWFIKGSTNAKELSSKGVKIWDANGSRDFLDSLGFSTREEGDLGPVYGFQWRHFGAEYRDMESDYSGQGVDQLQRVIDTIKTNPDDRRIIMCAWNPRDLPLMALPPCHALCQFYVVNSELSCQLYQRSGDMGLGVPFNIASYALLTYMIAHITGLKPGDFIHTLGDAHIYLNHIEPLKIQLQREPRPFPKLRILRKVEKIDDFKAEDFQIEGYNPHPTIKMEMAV

Ki [1] [µM] | Compound | western blot shift of TS (36 to 38 kDa, ternary complex) in HCT116 and SW480 cel [2]
0.62 ± 0.05 | O=c1[nH]c(=O)n([C@H]2C[C@H](O)[C@@H](COP(=O)(O)O)O2)cc1F [FdUMP] | The binding of FdUMP to TS, causing inhibition of the enzyme, is determined by the presence of an upper band
5.8 ± 1.4 | O=c1ccn([C@H]2C[C@H](O)[C@@H](COP(=O)(O)O)O2)c(=O)[nH]1 [dUMP] | –
